In ChEMBL document CHEMBL3507680, “University of Dundee, Gates Library screen for HepG2 cell viability” one finds cytotoxicity data, which are given here for 91 compounds.

This data set can be described thus: Human HepG2 cell viability assay in 384 well format. The format is toxicity, cell-based. Details: dose 125 nL, time 70.5 hour; concentration not given beside the values. To be noted: HepG2 cells, read-out: Inhibition.

In the case of `CSCC(C)(O)CNc1ncccc1C(F)(F)F` (stereo unspecified), the cytotoxicity at 70.5 h was determined as 1.25%.
Consider `CN(C)C(=O)CN1CCO[C@H]2CN(Cc3cccc(F)c3)C[C@H]21`, for which the cytotoxicity at 70.5 h is -8.07%.
As for `Cc1oncc1C(=O)N1CC[C@H]2[C@H]1CCN2S(C)(=O)=O`, the cytotoxicity at 70.5 h was -1.36%.
For the compound `Cc1noc([C@@]23CCO[C@@H]2CCN(S(=O)(=O)c2cccnc2)C3)n1`, the cytotoxicity at 70.5 h was -6.17%.
As for `O=C(NCCc1cccc(F)c1)c1nc2c(s1)CCCN2C(=O)C1CC1`, the cytotoxicity at 70.5 h is -5.89%.
Take `Cc1ccc(N2CCc3ncnc(C4CC4)c3CC2)nn1`: the cytotoxicity at 70.5 h worked out at 21.3%.
As to `c1cnc(N2CCO[C@H]3CN(CC4CCCC4)C[C@H]32)cn1`, the cytotoxicity at 70.5 h was determined as 2.36%.
For `COCCN1C(=O)CC(c2cccnc2)C12CCN(C)CC2` (stereo unspecified) the value was 0.172%; for `Cc1csc([C@@H]2C[C@@H]3CCN(Cc4cc(C)on4)C[C@H]3O2)n1`, -6.2%; for `Cc1noc([C@]23COC[C@H]2CN(C(=O)Cc2ccsc2)C3)n1`, -2.9%.
Regarding `O=C(NC[C@H]1C[C@@H]2CN(C(=O)c3ccco3)C[C@@H]2O1)c1ccsc1`, the cytotoxicity at 70.5 h was -3.16%.
Take `COCC1c2nnn(C)c2CCN1C(=O)Cc1ccccn1` (stereo unspecified): the cytotoxicity at 70.5 h was -3.79%.
`Cn1cc(C(=O)N[C@@H]2CN(Cc3ccoc3)[C@@H]3CCCO[C@@H]32)cn1`: the cytotoxicity at 70.5 h was -5.02%.
For `CCN1CC2(CC1=O)CN(C(=O)NC(C)C)CCN(S(C)(=O)=O)C2` (stereo unspecified) the value was -2.48%.
For `CCN1CC2(CC1=O)CN(C(C)=O)CCN(C(=O)NC)C2` (stereo unspecified) the value was -3.8%.
As to `CCN1CC2(CC1=O)CN(C(=O)NC(C)C)CCN(C(=O)C(C)C)C2` (stereo unspecified), the cytotoxicity at 70.5 h was -3.19%.
For `N#Cc1cccc(C(=O)NC2CCc3c(ccc(=O)n3CC3CC3)C2)c1` (stereo unspecified) the value was -2.82%; for `COc1ccc(CC(=O)N2CC[C@@H]3CN(C)S(=O)(=O)[C@@H]3CC2)cc1`, -5.74%; for `COCC(=O)N1C[C@H]2CCC[C@@]2(COC)C1`, -5.02%.
In the case of `CCOCC(=O)N1C[C@H]2CCC[C@@]2(COC)C1`, the cytotoxicity at 70.5 h was -7.78%.
For the compound `Cn1ccnc1CN1CCC2(CC1)COCCN(c1ncccn1)C2`, the cytotoxicity at 70.5 h is -5.62%.
The result for `CCC(C)(C)C(=O)N1C[C@@H]2C[C@@H](c3nnc(C)[nH]3)O[C@@H]2C1` reads -8.87%.
On to `COc1cccc(NC(=O)N2CC[C@@H]3CN(C)S(=O)(=O)[C@@H]3CC2)c1`, for which the cytotoxicity at 70.5 h is 20.9%.
Consider `COCCN(C)C(=O)c1cc2c(s1)CCN2C(=O)C1CC1`, for which the cytotoxicity at 70.5 h is 2.55%.
For `c1c(CN2CCOCC2)nc2n1CCN(CC1CC1)C2` the value was -3.69%; for `Cn1ccc(C(=O)N2CCC3(CC2)CC(Nc2cnccn2)CO3)n1` (stereo unspecified), -7%; for `Cc1cccc(CN2CCC3(CC(C(=O)NCC(C)C)=NO3)C2)c1` (stereo unspecified), -5.06%.
The result for `COCC(=O)N1CCCC2(CCN(c3ccsc3)C2=O)C1` (stereo unspecified) reads 32.8%.
For `N#Cc1ccc(C(=O)N2CC[C@H]3[C@@H]2CCC(=O)N3c2ccccc2)cc1` the value was -12%.
On to `Cn1cccc1C(=O)N1CCn2cc(CNC(=O)CC3CC3)nc2C1`, for which the cytotoxicity at 70.5 h is -10.2%.
For `Cc1cccc(CN2C[C@@H]3OCCN(CC(=O)N(C)C)[C@@H]3C2)c1` the value was -8.16%.
Regarding `CC(C)CN1C(=O)CC[C@]12CC[C@@H](NC(=O)NCc1cccnc1)CC2`, the cytotoxicity at 70.5 h was -3.62%.
The result for `CCC(=O)Nc1ccc2c(c1)C1(CCOCC1)CN2CCOC` reads 13.5%.
Consider `Cc1ccc(N2CC[C@@H]3[C@@H]2CCN3C(=O)Cc2ccsc2)nn1`, for which the cytotoxicity at 70.5 h is -4.23%.
For `Cc1ccc(N2CC[C@@H]3[C@@H]2CCN3C(=O)Cc2cccs2)nn1`, the cytotoxicity at 70.5 h was -3.66%.
The result for `CN(C)CCNC(=O)c1nc2c(s1)CCCN2C(=O)C1CC1` reads -2.21%; that for `O=C(c1ccncc1)N1CCOC2(CCCN(c3nncs3)C2)C1` (stereo unspecified), -0.0919%.
For `c1ccc(CN2Cc3nccn3CC(Cn3cccn3)C2)nc1` (stereo unspecified) the value was -3.5%; for `CC(=O)N1CCO[C@@H]2CN(Cc3cccc(Cl)c3)C[C@@H]2C1`, -2.75%; for `Cn1cc(CN2C[C@@H]3COC[C@]3(COCC3CC3)C2)cn1`, -5.3%.
The result for `c1cnc(N2CCO[C@H]3CN(CC4CCC4)C[C@H]32)cn1` reads -4.76%; that for `Cn1ccnc1C(=O)N[C@@H]1CN(Cc2ccc(F)cc2)[C@@H]2CCCO[C@@H]21`, -3.63%; that for `COc1ncccc1C(=O)N1CCC2(CC1)CC(OC)CO2` (stereo unspecified), -6.77%.
Take `CC(=O)N1CCCC2(C1)CN(c1nncs1)CCO2` (stereo unspecified): the cytotoxicity at 70.5 h was -4.62%.
`c1cncc(N2CCO[C@H]3CN(CC4CCOC4)C[C@H]32)c1` (stereo partly specified): the cytotoxicity at 70.5 h is -3.42%.
Turning to `CC1N(c2cnn(C)c2)C(=O)COC12CCN(c1ccccn1)CC2` (stereo unspecified), the cytotoxicity at 70.5 h was -2.76%.
For the compound `CO[C@@H]1CCN(C(=O)Cc2cccc(F)c2)[C@H]1Cc1cccnc1`, the cytotoxicity at 70.5 h was -3.88%.
In the case of `CC1N(c2cnn(C)c2)C(=O)COC12CCN(CC1CC1)CC2` (stereo unspecified), the cytotoxicity at 70.5 h was -3.07%.
As to `CO[C@@H]1CCN(C(=O)Cc2ccsc2)[C@H]1Cc1cccnc1`, the cytotoxicity at 70.5 h is -5.91%.
In the case of `Cc1nc(CN2CCN(C)C(=O)C23CCN(C(C)C)CC3)cs1`, the cytotoxicity at 70.5 h is -9.48%.
The result for `CCN1CCN(C)C(=O)C12CCN(Cc1csc(C)n1)CC2` reads -8.47%; that for `COc1cccc(CC(=O)N2CC[C@@H]3[C@H](CC2)N(C)CCS3(=O)=O)c1`, -2.21%; that for `CN1CCN(CC2CC2)C(=O)C12CCN(C(=O)CC(F)(F)F)CC2`, -4.4%.
For `CNC(=O)[C@H]1C[C@@H]2CN(Cc3cccc(C)c3)C[C@H]1O2` the value was -6.34%; for `O=C([C@H]1CC[C@@H]2[C@@H](CCN2C2CCOCC2)O1)N1CCOCC1`, -6.52%; for `O=C([C@H]1CC[C@@H]2[C@@H](CCN2C2CCCCC2)O1)N1CCOCC1`, -7.67%.
The result for `COC[C@@]12CCC[C@@H]1CN(C(=O)CN(C)C)C2` reads -6.84%; that for `Cc1ccc(CN2CCc3onc(C(=O)NC(C)C)c3C2)o1`, -8.41%; that for `COCC1COCCC12CCN(Cc1nccs1)CC2` (stereo unspecified), -5.6%.
As for `C1CC(N2Cc3nnn(CC4CC4)c3C(COCC3CC3)C2)C1` (stereo unspecified), the cytotoxicity at 70.5 h is -3.4%.
In the case of `Cc1noc(C)c1CN1CC[C@@H](OCC2CC2)[C@@H](Cc2ccccc2)C1`, the cytotoxicity at 70.5 h is -4.91%.
For `CCn1cc2c(n1)CN(CC1CC1)CC2COCC1CC1` (stereo unspecified) the value was -15%; for `O=C1COC2(CCN(Cc3ccoc3)CC2)CN1c1ccsc1`, -15.9%; for `CCn1cc2c(n1)CN(Cc1nccs1)CC2COCC1CC1` (stereo unspecified), -11%.
The result for `CC(=O)N1CCOCC2(CN(Cc3ccc(C)o3)CCO2)C1` (stereo unspecified) reads 28.8%.
The result for `O=C([C@@H]1C[C@@H]2CCN(CCc3ccccc3)C[C@H]2O1)N1CCCC1` reads -3.84%; that for `Cc1ccc(CN2CCCn3nnc(COCC4CC4)c3C2)s1`, -1.67%; that for `Cc1noc(C)c1CN1C[C@@H]2COC[C@H](C(=O)N3CCCCO3)[C@@H]2C1`, -13%.
With `Cn1cc(CN2CCn3cc(CNC(=O)c4cccn4C)nc3C2)cn1`, the cytotoxicity at 70.5 h is -2.17%.
Consider `Cc1occc1C(=O)N1CCO[C@H]2[C@@H](Oc3ccccn3)CC[C@@H]21`, for which the cytotoxicity at 70.5 h was determined as 4.46%.
The result for `Cc1ccc(CN2C[C@@H]3COC[C@H](C(=O)N4CCCCO4)[C@@H]3C2)o1` reads -8.64%; that for `c1cnc(N2CCO[C@H]3CN(CC4CCOCC4)C[C@H]32)nc1`, -3.7%.
Consider `CN1CC[C@@H]2OC[C@H](C(=O)N(C)Cc3ccccn3)C[C@@H]2C1`, for which the cytotoxicity at 70.5 h stood at 2.32%.
On to `O=C(C[C@@H]1COC[C@H]2CN(Cc3cccnc3)C[C@@H]12)NCC1CC1`, for which the cytotoxicity at 70.5 h is -4.39%.
The result for `CN1CCN(C(=O)[C@H]2C[C@H]3[C@H](CCN3Cc3cccs3)O2)CC1` reads -2.03%.
Consider `Cc1cnc(N2CCC3(CC2)CN(Cc2cccs2)CCO3)nc1`, for which the cytotoxicity at 70.5 h was -8.99%.
For `Fc1cnc(N2CCOC3(CCN(Cc4cccs4)CC3)C2)nc1` the value was -6.76%; for `Cc1ccc(CN2CCc3onc(C(=O)NCCN(C)C)c3C2)o1`, -8.28%.
For `COCCN1C[C@@H]2COC[C@@H](CC(=O)NCc3cccnc3)[C@@H]2C1` the value was -16.6%.
With `CCOC1COC2(CCN(Cc3cccnc3OC)CC2)C1` (stereo unspecified), the cytotoxicity at 70.5 h was -1.38%.
In the case of `c1c(CN2CCCC2)nc2n1CCN(C1CCOCC1)C2`, the cytotoxicity at 70.5 h is -0.565%.
Turning to `O=C(N1CCOCC1)[C@@]12CCO[C@@H]1CCN(Cc1ccncc1)C2`, the cytotoxicity at 70.5 h was -3.44%.
With `CN1CCOCC12CCN(Cc1ccoc1)CC2`, the cytotoxicity at 70.5 h is -13.2%.
Consider `Cc1ccc2c(n1)N(CCN(C)C)CCN(C(=O)c1ccc[nH]1)C2`, for which the cytotoxicity at 70.5 h was 0.599%.
Take `CN(Cc1cn2c(n1)CN(CC1CC1)CC2)Cc1ccco1`: the cytotoxicity at 70.5 h is -11.8%.
Turning to `CN(Cc1cn2c(n1)CN(c1ncc(F)cn1)CC2)Cc1ccco1`, the cytotoxicity at 70.5 h is -8.98%.
Regarding `O=C(NC[C@]12COC[C@H]1CN(Cc1cccnc1)C2)c1ccno1`, the cytotoxicity at 70.5 h was -14.7%.
`c1cncc(CN2CC[C@H]3O[C@@H](COCC4CC4)CC[C@H]32)c1`: the cytotoxicity at 70.5 h was -5.15%.
Regarding `c1cc(CN2CCN3C[C@H](Oc4cncnc4)C[C@H]3C2)ccn1`, the cytotoxicity at 70.5 h was -5.1%.
For `CC(C)N1CC[C@H]2[C@H](C[C@@H](Cn3cccn3)N2c2nccs2)C1`, the cytotoxicity at 70.5 h is -4.28%.
Consider `CN(C)CCN1CCOCC2(C1)CN(Cc1ccsc1)CCO2` (stereo unspecified), for which the cytotoxicity at 70.5 h is -9.68%.
